# Experiments:
# [1] = Particle size distribution, MALVERN MASTERSIZER 3000, Hydro MV wet dispersion (wet analysis); assay type: physicochemical; conditions: wet analysis method; starting material before milling
# Method: The particle size distribution for the micronized glycopyrrolate formulations was determined by MALVERN MASTERSIZER® 3000 using the Hydro MV wet dispersion unit as follows: the dispersion unit was filled with iso-octane (2,2,4-trimethylpentane). The pump speed was set to 3000 rpm. Ten millilitres of 0.1% lecithin in iso-octane was added to approximately 10 mg of the micronized glycopyrrolate formulation, this pre-dispersion was then sonicated for 3 minutes using a Sonopuls sonic probe at 50% intensity. The dispersed particles were added to the dispersion unit to reach an obscuration of 5-15%. The optical properties used included a refractive index of 1.52 and an absorption value of 1.0 for the glycopyrrolate, and a refractive index of 1.45 and an absorption value of 1.0 for the magnesium stearate and a refractive index of 1.391 for the iso-octane. Six replicates were performed per measurement.
# [2] = Particle size distribution, MALVERN MASTERSIZER 3000, Aero S dry dispersion method at 4 Bar; assay type: physicochemical; conditions: unmicronised source powder
# Method: The particle size distribution for unmicronised glycopyrrolate was determined by MALVERN MASTERSIZER analysis (MALVERN MASTERSIZER® 3000, using the Aero S dry dispersion method at 4 Bar) and found to be D10=11.3 μm, D50=98.0 μm, D90=281 μm (see FIG. 1).
# The particle size distributions for Formulation 1 (D10=0.283 μm, D50=1.66 μm, D90=5.40 μm) and Formulation 2 (D10=0.270 μm, D50=1.41 μm, D90=3.66 μm were determined by MALVERN MASTERSIZER® analysis (MALVERN MASTERSIZER® 3000, using the Aero S dry dispersion method at 4 Bar). These are reported in FIGS. 4 and 8 respectively and Table 1 below.
# The particle size distribution for the micronized glycopyrrolate formulations was determined by MALVERN MASTERSIZER® analysis (MALVERN MASTERSIZER® 3000, using the Aero S dry dispersion method at 4 Bar and a feed rate of between 30-40%). The optical properties used included a refractive index of 1.52 and an absorption value of 1.0.
Compound,D10 [1],D50 [1],D90 [1],D10 [2],D50 [2],D90 [2],cumulative fraction under 5 μm ([2]; stored sealed)
"C[N+]1(C)CCC(OC(=O)C(O)(c2ccccc2)C2CCCC2)C1 (stereo not shown) [unmicronised glycopyrrolate, glycopyrrolate]",20.6 μm,148.7 μm,409.7 μm,11.3 μm,98.0 μm,281 μm,4.68%
magnesium stearate,2.8 μm,8.8 μm,27.4 μm,–,–,–,–
